Reference: publication PMC4335062, “Data-Driven Prediction and Design of bZIP Coiled-Coil Interactions” (PLoS Computational Biology, 2015)
Where “and” joins values, the source holds several entries; their conditions need not be identical. Identical values can stand only once. Like-named read-outs stand apart in the source and are kept apart here. Where no end group is shown, it is not given here.

What was measured:
ATF6 = ATF6 (Homo sapiens, UniProt P18850); test: Direct-binding FRET assay; parameters: made in house
Description: (§1) The direct binding assay was performed manually in 384-well plates and is similar to a previously described assay. Wells were filled with 20 μL of 1 mM TCEP-HCl. A 4 μM stock of acceptor protein was made fresh in 1 mM TCEP-HCl, and 20 μL was titrated in 2-fold dilutions over the wells. […] The direct-binding FRET data were fit as previously described. Briefly, the Kd of the designed peptide homodimer was experimentally determined and used with previously determined target homodimer Kd values to determine the heterodimer Kd. The homodimer Kd values used for the human bZIPs were from; experiments done by […] et al. used the same protein constructs for the human bZIP proteins, the same buffer conditions, and the same assay. The fitting used a system of ordinary differential equations to describe the concentrations of homo and heterodimers formed by the donor (D) and acceptor (A) as a function of the heterodimer Kd. MATLAB was used to simulate the binding experiment for different Kd values, and the value that gave the best agreement between simulation and experiment was assigned. A minimum 15% change in the donor fluorescence upon titrating the acceptor peptide from 0 to 1000 nM was required for a fit to be attempted. If this minimum was not met, the interaction was classified as “NS” for no signal change. […] These interactions were marked “AS” to indicate anomalous signal. We attributed this to interactions between the peptides, the dyes and the walls of the assay plates at low concentrations. These curves could not be fit, given their unusual shapes at low concentrations of acceptor. For such curves, we removed the first five points and re-fit the data. […] One example of this is increasing concentrations of acceptor causing an increase in donor fluorescence.

BACH1 = BACH1 (Homo sapiens, UniProt O14867); test: Direct-binding FRET assay; parameters: made in house
Description: as §1

NFE2L1 [1] = biological target: T1, NFE2L1 (Homo sapiens, UniProt Q14494); test: Direct-binding FRET assay; parameters: made in house; settings: Kd, mean or single
Description: as §1
Target sequence in this assay (Q14494 654-717 limits assumed): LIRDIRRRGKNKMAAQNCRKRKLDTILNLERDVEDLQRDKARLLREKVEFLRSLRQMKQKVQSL

BACH2 = BACH2 (Homo sapiens, UniProt Q9BYV9); test: Direct-binding FRET assay; parameters: made in house; settings: Kd
Description: as §1

NFE2 (human) [2] = biological target: NFE2 (human) (UniProt Q16621); test: FRET or BRET; direct-binding FRET in 384-well plates; rhodamine-labelled design (acceptor) titrated 0 to 1 uM into 10 nM fluorescein-labelled bZIP (donor); 150 mM KCl, 50 mM potassium phosphate pH 7.4, 0.1% Tween-20, 0.1% BSA; 23 °C
MAFF (human) = MAFF (human) (UniProt Q9ULX9); test: as above
ATF4 (human) [3] = biological target: ATF4 (human) (UniProt P18848); test: as above
NFE2 (human) [4] = biological target: NFE2 (human) (UniProt Q16621); test: FRET or BRET; direct-binding FRET in 384-well plates; rhodamine-labelled design (acceptor) titrated 0 to 1 uM into 10 nM fluorescein-labelled bZIP (donor); 150 mM KCl, 50 mM potassium phosphate pH 7.4, 0.1% Tween-20, 0.1% BSA; 37 °C
NFE2L1 [5] = biological target: T1, NFE2L1; test: FRET or BRET; direct-binding FRET in 384-well plates; rhodamine-labelled design (acceptor) titrated 0 to 1 uM into 10 nM fluorescein-labelled bZIP (donor); 150 mM KCl, 50 mM potassium phosphate pH 7.4, 0.1% Tween-20, 0.1% BSA; 4 °C
Target sequence in this assay (Q14494 whole entry): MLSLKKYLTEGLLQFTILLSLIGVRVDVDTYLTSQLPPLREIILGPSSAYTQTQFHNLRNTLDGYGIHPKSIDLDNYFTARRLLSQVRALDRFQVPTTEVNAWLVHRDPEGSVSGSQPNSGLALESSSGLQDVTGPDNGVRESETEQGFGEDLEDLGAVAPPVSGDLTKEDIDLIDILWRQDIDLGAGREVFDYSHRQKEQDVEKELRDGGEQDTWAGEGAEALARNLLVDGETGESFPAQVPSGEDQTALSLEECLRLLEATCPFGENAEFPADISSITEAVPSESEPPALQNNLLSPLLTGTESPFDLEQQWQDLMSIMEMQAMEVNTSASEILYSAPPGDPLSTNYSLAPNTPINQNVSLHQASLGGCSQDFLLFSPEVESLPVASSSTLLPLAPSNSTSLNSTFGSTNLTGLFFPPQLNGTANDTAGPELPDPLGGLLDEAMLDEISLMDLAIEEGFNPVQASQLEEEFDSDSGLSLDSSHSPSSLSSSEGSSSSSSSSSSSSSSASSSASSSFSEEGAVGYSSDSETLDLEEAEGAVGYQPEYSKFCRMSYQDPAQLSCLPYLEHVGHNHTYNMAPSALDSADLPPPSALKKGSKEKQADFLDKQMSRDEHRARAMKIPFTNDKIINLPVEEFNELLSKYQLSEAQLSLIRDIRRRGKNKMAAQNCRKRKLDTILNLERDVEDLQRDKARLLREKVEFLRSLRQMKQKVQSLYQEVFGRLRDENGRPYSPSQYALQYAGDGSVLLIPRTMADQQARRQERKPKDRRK

ATF4 (human) [6] = biological target: ATF4 (human) (UniProt P18848); test: FRET or BRET; direct-binding FRET in 384-well plates; rhodamine-labelled design (acceptor) titrated 0 to 1 uM into 10 nM fluorescein-labelled bZIP (donor); 150 mM KCl, 50 mM potassium phosphate pH 7.4, 0.1% Tween-20, 0.1% BSA; 37 °C
[7] = 4°C, C-terminal fluorescein design as donor, TAMRA target titrated
[8] = 4°C, C-terminal rhodamine design, mean or single
[9] = 4°C, N-terminal rhodamine design, mean or single
[10] = 23°C, C-terminal fluorescein design as donor, TAMRA target titrated
[11] = 23°C, C-terminal rhodamine design, mean or single
[12] = 23°C, N-terminal rhodamine design, mean or single
[13] = 37°C, C-terminal fluorescein design as donor, TAMRA target titrated
[14] = 37°C, N-terminal rhodamine design, mean or single

Chain of ATF6 (P18850 306-369 limits assumed): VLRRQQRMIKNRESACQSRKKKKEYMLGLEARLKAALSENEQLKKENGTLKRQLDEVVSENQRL
Chain of BACH2 (Q9BYV9 646-709 limits assumed): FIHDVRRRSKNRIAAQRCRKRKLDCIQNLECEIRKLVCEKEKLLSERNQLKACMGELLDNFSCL
Chain of NFE2 (human) (Q16621 whole entry): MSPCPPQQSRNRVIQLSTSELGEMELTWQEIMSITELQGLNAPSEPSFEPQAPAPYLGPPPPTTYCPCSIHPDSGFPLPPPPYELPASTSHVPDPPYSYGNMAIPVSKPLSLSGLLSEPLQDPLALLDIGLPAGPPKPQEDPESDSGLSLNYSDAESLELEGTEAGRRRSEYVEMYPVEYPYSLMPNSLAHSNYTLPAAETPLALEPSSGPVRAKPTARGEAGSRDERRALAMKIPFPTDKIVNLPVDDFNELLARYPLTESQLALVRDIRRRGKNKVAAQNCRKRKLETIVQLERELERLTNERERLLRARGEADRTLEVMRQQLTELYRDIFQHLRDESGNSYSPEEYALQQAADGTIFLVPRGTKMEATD
Chain of ATF4 (human) (P18848 whole entry): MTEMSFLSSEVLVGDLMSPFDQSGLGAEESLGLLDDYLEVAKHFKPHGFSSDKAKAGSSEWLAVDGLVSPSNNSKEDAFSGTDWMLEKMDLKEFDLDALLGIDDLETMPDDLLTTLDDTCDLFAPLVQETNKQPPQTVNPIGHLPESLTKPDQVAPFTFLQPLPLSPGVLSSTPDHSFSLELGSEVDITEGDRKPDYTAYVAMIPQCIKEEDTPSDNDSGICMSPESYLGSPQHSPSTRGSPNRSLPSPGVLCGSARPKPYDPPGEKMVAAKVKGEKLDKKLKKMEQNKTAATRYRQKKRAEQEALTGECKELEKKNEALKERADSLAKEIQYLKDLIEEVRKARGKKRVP
Chain of BACH1 (O14867 557-620 limits assumed): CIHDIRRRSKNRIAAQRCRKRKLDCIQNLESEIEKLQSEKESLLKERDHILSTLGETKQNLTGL
Chain of MAFF (human) (Q9ULX9 whole entry): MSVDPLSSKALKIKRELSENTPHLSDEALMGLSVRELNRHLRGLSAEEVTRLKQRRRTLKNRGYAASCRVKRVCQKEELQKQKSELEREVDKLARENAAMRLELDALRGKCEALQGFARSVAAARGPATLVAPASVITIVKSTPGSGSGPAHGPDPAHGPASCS

Molecule: SIAATLEKEEANLEKMNKKLAAEIESLLKEKDKLESVLNYHE [JUN-d1]
- Kd (ATF6): > 1000 nM
- Kd (ATF6; [7]): > 1000 nM
- Kd (ATF6; [8]): > 1000 nM
- Kd (ATF6; [9]): > 1000 nM
- Kd (ATF6; [10]): > 1000 nM
- Kd (ATF6; [11]): > 1000 nM
- Kd (ATF6; [12]): > 1000 nM
- Kd (ATF6; [13]): > 1000 nM
- Kd (ATF6; [14]): > 1000 nM
- Kd (BACH1): > 1000 nM
- Kd (BACH1; [7]): > 1000 nM
- Kd (BACH1; [8]): > 1000 nM
- Kd (BACH1; [9]): > 1000 nM
- Kd (BACH1; [10]): > 1000 nM
- Kd (BACH1; [11]): > 1000 nM
- Kd (BACH1; [12]): > 1000 nM
- Kd (BACH1; [13]): > 1000 nM
- Kd (BACH1; [14]): > 1000 nM
- Kd (NFE2L1 [1]; 4°C, C-terminal rhodamine design): > 5000 nM
- Kd (NFE2L1 [1]; 4°C, N-terminal rhodamine design): > 1000 nM
- Kd (NFE2L1 [1]; 23°C, C-terminal rhodamine design): > 5000 nM
- Kd (NFE2L1 [1]; 23°C, N-terminal rhodamine design): > 1000 nM
- Kd (NFE2L1 [1]; 37°C, C-terminal rhodamine design): > 5000 nM
- Kd (NFE2L1 [1]; 37°C, N-terminal rhodamine design): > 1000 nM
- Kd (BACH2; [7]): > 1000 nM
- Kd (BACH2; [8]): > 5000 nM
- Kd (BACH2; [9]): > 1000 nM
- Kd (BACH2; [10]): > 1000 nM
- Kd (BACH2; [11]): > 1000 nM
- Kd (BACH2; [12]): > 1000 nM
- Kd (BACH2; [13]): > 1000 nM
- Kd (BACH2; 37°C, C-terminal rhodamine design, mean or single): > 1000 nM
- Kd (BACH2; [14]): > 1000 nM

B1: ATF4-d1 labeled at the C-terminus (designed binder)
chain: GESKEYKKGSGSNQIKTLRTRLSKLRKDNLQLEKDIANLERKAKDLRAEKEQLEYELGC
modifications: also: C59 label by assay: Rhodamine Red C2-maleimide or fluorescein-5-maleimide
notes: solubility linker after the His6 tag; added to the C-terminus for labeling; one molecule for the rhodamine- and the fluorescein-labelled form; the assay tells which label stood there; also called ATF4-d1-Rhodamine; ATF4-d1-FITC; source: E. coli RP3098, purified (Ni-NTA under denaturing conditions, reverse-phase HPLC)
- Kd (NFE2 (human) [2]): > 5000 nM
- Kd (MAFF (human)): 623 nM
- Kd (ATF4 (human) [3]): 1 nM
- Kd (NFE2 (human) [4]): 2920 nM
- Kd (NFE2L1 [5]): > 5000 nM
- Kd (ATF4 (human) [6]): 11.3 nM and 9.9 nM and 6.8 nM

B2: ATF5-d1 labeled at the C-terminus (designed binder)
chain: GESKEYKKGSGSKRIAYLRQRIAELRNENHVLESRIQRMEKEKDALQQDRDHLEYELGC(Rhodamine Red C2‑maleimide)
modifications: not fully specified
- Kd (NFE2 (human) [2]): > 5000 nM
- Kd (MAFF (human)): > 5000 nM
- Kd (ATF4 (human) [3]): 1 nM
- Kd (NFE2 (human) [4]): > 5000 nM
- Kd (NFE2L1 [5]): > 5000 nM
- Kd (ATF4 (human) [6]): 4.8 nM and 4 nM and 6 nM
